Entries after “also recorded” stand apart in the source; their conditions may differ.
Key:
nascent TF-FVIIa-FXa = target: T1, nascent TF-FVIIa-FXa (Homo sapiens, UniProt P00742); assay: FVIII activation (FVIIIa generation, WB) by nascent FXa generated by TF-FVIIa; format: biochemical; conditions: for effect on FVIII activation by nascent FXa generated by TF-FVIIa: therapeutic concentrations, 50-450 nM
T1 construct: purchased Haematologic Technologies (FX); Siemens Healthcare Diagnostics (rTF); FVIIa made in house
Experimental: (§1) Thrombin was quantified with a fluorogenic substrate for calculation of % inhibition. […] Reactions were initiated by 100 pM FXa with 50 pM rTF as the phospholipid surface (top); or the preformed complex of 50 pM TF, 100 pM iFVIIa, 100 pM FXa, 5 nM NAPc2 (middle); or 50 pM TF/200 pM FVIIa/135 nM FX (bottom) in mixtures of 0.7 nM FVIII, 3 nM FV, 200 nM lepirudin, 10 nM TFPI, and 2.5 mM CaCl2 incubated for 120 s at 37° C. […] (n=3-4). […] Endogenous thrombin potential (ETP, right) was calculated from the area under the TG curve (n=2). Results in (E) and (F) are shown as 25th-75th percentile bars with min to max whiskers or min to max bars (when n≤3) with a line at the median. Differences were evaluated with the ANOVA/Tukey test (performed after log 10 transformation of the data shown in E); *P<0.05, ***P<0.001.
(A) WB analysis (representing 3) of the effect of anti-FVIIa MoAbs 3G12 and 12C7 (20 μg/ml) on TF-dependent FVIIIa generation after 120 s in reactions including 50 pM TF, 200 pM FVIIa, 135 nM FX, 3.5 nM FVIII, 3 nM FV and 200 nM lepirudin; quantification as in FIG. 4E. […] Reactions contained 50 pM TF, 200 pM FVIIa, 0.7 nM FVIII, 3 nM FV, 135 nM FX, 10 nM TFPI, 200 nM lepirudin and 2.5 mM CaCl2; anti-FVIIa MoAbs or control mouse IgG were at 20 μg/ml; the function-blocking anti-FVIII MoAb 8D4 was at 8 μg/ml. (C) Effect of anti-FVIIa MoAbs 3G12 and 12C7 (20 μg/ml), without or with anti-FVIII MoAb 8D4 (8 μg/ml) or anti-FXI MoAb O1A6 (20 μg/ml), on TG in normal PRP. […] Results in (B) and (D) are shown as 25th-75th percentile bars with min to max whiskers or min to max bars (when n≤3) with a line at the median. Differences were evaluated by a two-tailed t-test with Welch correction (A) or the ANOVA/Tukey test (B and D). *P<0.05, **P<0.01, ***P<0.001.
Coagulation reaction products were separated by reducing sodium dodecyl sulfate-polyacrylamide gel electrophoresis (SDS-PAGE), except for the analysis of FVIII activation in the presence of anti-FVIIa MoAbs that was performed under non-reducing conditions. After transfer to a polyvinylidene fluoride membrane, blots were probed with MoAb C5, biotinylated or not (0.5 μg/ml), for FVIII activation; MoAb AHV-5146 (1 μg/ml) for FV. Quantitative infrared detection of FVIIIa and FVa was obtained with IRDye 800CW-conjugated anti-mouse IgG or streptavidin followed by analysis with the Odyssey infrared imager (Li-COR, Lincoln, Nebr.). Concentrations were calculated by calibration with known quantities of FVIIIa and FVa.
The synthetic reaction mixtures comprised 0.7 nM FVIII, 3 nM FV, 135 nM FX, 104 prothrombin in 50 mM Tris-buffered saline, pH 7.4, with 0.1% BSA. […] Reactions to prevent thrombin effects were carried out in the presence of 200 nM lepirudin or 4 μM DAPA. Reactions were initiated by adding 0.6 to 400 pM rTF, 200 to 500 pM FVIIa or/and 10 nM FIXa, followed by 2.5 mM CaCl2 and incubation at 37° C. for the indicated times. 10 mM EDTA was then added to quench the reaction. Generation of FXa, FIIa and thrombin were evaluated by measuring amidolytic activity toward the chromogenic substrate S-2765 (180 μM; N-α-benzyloxycarbonyl-D-arginyl-L-glycyl-L-arginine-p-nitroaniline; DiaPharma, West Chester, Ohio) and the fluorogenic substrate Z-Gly-Gly-Arg-AMC (360 μM) respectively.

[1] = target: T2, pre-activated FXa either free or in a NAPc2-stabilized complex with TF-iFVIIa (Homo sapiens, UniProt P00742); assay: FVIII activation (FVIIIa generation, WB) by pre-activated FXa, free or in NAPc2-stabilized complex; format: biochemical; conditions: therapeutic concentrations, 50-450 nM
T2 construct: purchased Haematologic Technologies (FXa); Siemens Healthcare Diagnostics (rTF, Dade Innovin)
Experimental: (D) WB analysis (representing 2) of FVIIIa generation by pre-activated or de novo generated FXa and its inhibition by increasing concentrations of AT/penta. Reactions (37° C.) initiated by 200 pM FXa or 20 pM FVIIa with 50 nM FX into mixtures of 400 pM TF, 0.7 nM FVIII, 200 nM lepirudin without (top, incubation 60 s) or with (bottom, incubation 120 s) 3 nM FV/50 nM FIX. (E) Quantification (relative to non-inhibited control) of FVIIIa generated as in D (bottom) calibrated with known FVIIIa quantities (n=6-8 by nascent FXa, 4-6 by pre-formed FXa). […]
Coagulation reaction products were separated by reducing sodium dodecyl sulfate-polyacrylamide gel electrophoresis (SDS-PAGE), except for the analysis of FVIII activation in the presence of anti-FVIIa MoAbs that was performed under non-reducing conditions. […] Quantitative infrared detection of FVIIIa and FVa was obtained with IRDye 800CW-conjugated anti-mouse IgG or streptavidin followed by analysis with the Odyssey infrared imager (Li-COR, Lincoln, Nebr.). Concentrations were calculated by calibration with known quantities of FVIIIa and FVa. […]

thrombin generation (TG) = assay: TG in reactions with purified components (FVIIa, FIXa, rTF, FX, FV, prothrombin, TFPIα); format: biochemical, human; conditions: therapeutic doses
Experimental: as §1
The synthetic reaction mixtures comprised 0.7 nM FVIII, 3 nM FV, 135 nM FX, 104 prothrombin in 50 mM Tris-buffered saline, pH 7.4, with 0.1% BSA. […] Reactions to prevent thrombin effects were carried out in the presence of 200 nM lepirudin or 4 μM DAPA. […] Generation of FXa, FIIa and thrombin were evaluated by measuring amidolytic activity toward the chromogenic substrate S-2765 (180 μM; N-α-benzyloxycarbonyl-D-arginyl-L-glycyl-L-arginine-p-nitroaniline; DiaPharma, West Chester, Ohio) and the fluorogenic substrate Z-Gly-Gly-Arg-AMC (360 μM) respectively.

[2] = target: T3, ternary TF-FVIIa-FXa complex (Homo sapiens, UniProt P00742); assay: FV activation (FVa generation, WB) by TF-FVIIa with FX; format: biochemical; conditions: clinically relevant concentrations
T3 construct: purchased Haematologic Technologies (FX); Siemens Healthcare Diagnostics (rTF); FVIIa made in house
Experimental: (A) Phospholipid-free assay of FX (1 μM) to FXa conversion by the complex of 2 μM soluble rTF with 10 nM FVIIa WT, T99Y or E154A. (B) FXa generation by 50 pM phospholipid-reconstituted rTF with 200 pM FVIIa WT, T99Y or E154A added to 135 nM FX, 0.7 nM FVIII, 3 nM FV and 200 nM lepirudin (2 min, n=2-3; 4 min, n=4-5; 6 min, n=6-9). (C) WB (representing 2) of FVIII activation in reactions of 50 pM TF, 200 pM FVIIa WT or mutants, 0.7 nM FVIII, 3 nM FV and 200 nM lepirudin without/with 135 nM FX, incubated for 120 s at 37° C. […] (E) FXa generation measured in reactions as in (D) without TFPIα and in the presence of 10 nM FIXa (left, incubation 180 s; n=5-6 except=2 for E154A) or 90 nM FIX (right, incubation for 360 s; n=5-6). […] Differences were evaluated by the ANOVA/Tukey test; results at 4 and 6 min in (B) and in reactions with FIX in (E, right) were analyzed after transformation as y=log 10 y (**P<0.01, ***P<0.001).
Time-course (mean±SEM) of 1 μM FX activation by 2 μM phospholipid-free soluble recombinant TF with 10 nM FVIIa WT (n=4-7), T99Y (n=2-3) or E154A mutants (n=3-4); incubation at 37° C. […] FVIIIa activity (25th-75th percentile bars, min to max whiskers, line at the median) generated as in (B), but without TFPIα, measured as FXa produced by 10 nM FIXa (n=9 for FVIIa WT and T99Y; n=5 for E154A). **P<0.01, ***P<0.001) by ANOVA/Tukey tests. […]

[3] = test system: fibrillar collagen type I; assay: Blood perfusion over fibrillar collagen type I, volume of platelet aggregates and fibrin; format: cell-based, human; conditions: blood of treated patients, collagen surface
Experimental: The volume of platelet aggregates and deposited fibrin was measured by confocal microscopy. Statistical analysis by one-way ANOVA and Tukey post-test. *P<0.05; **P<0.01; ***P<0.001.
Glass coverslips treated with 0.2 mg/ml poly-L-lysine for 6 h at 37° C. were coated with rTF for 18-20 hours at 37° C. or 2.5 mg/ml acid-insoluble type I collagen for 2 hours at 22-25° C. Then they were rinsed with pH 7.4 buffered-saline, assembled in a rectangular flow chamber with a 125 μm-high silicon gasket and positioned on a confocal microscope stage for analysis. Venous blood for testing was collected into final 10.9 mM trisodium citrate using a plastic syringe for normal volunteers or Vacutainer tubes (Becton Dickinson, Buccinasco, Milan) for patients and controls. Before perfusion at a flow rate yielding an initial wall shear rate of 300 s^−1 maintained with a syringe pump (Harvard Apparatus, Holliston, Mass.), CaCl2 was added to obtain 1.29 mM Ca^2+. In the blood of patients—potentially hypercoagulable—and related controls, lepirudin (50 nM) was also added to neutralize thrombin possibly generated before testing. […] For experiments with WT and mutant FVIIa, cells from group O citrated blood, containing 50 μg/ml CTI and 10 U/ml (ADPase activity) apyrase, were washed free of plasma by sequential centrifugation steps at 1500 g for 7 min. After the first, plasma was replaced with an equal volume of calcium-free Tyrode buffer, pH 6.5, with 5 U/ml apyrase; then with buffer and 1.25 U/ml apyrase; and finally with human FVII deficient plasma (George King Bio-Medical, Overland Park, Kans.) up to the original blood volume. […] Experiments in Milan (Italy) were performed with a Leica TCS SP5 microscope and HCX PL APO 63x/1.40 NA oil immersion objective (Leica Microsystems GmbH, Wetzlar, Germany); in La Jolla (California) with a Zeiss Axiovert 135M/LSM 410 and Plan-Apochromat 40x/1.40 NA oil immersion objective (Carl Zeiss AG, Oberkochen, Germany).
Platelets adhering and aggregating onto the surface were visualized by adding quinacrine-HCl (mepacrine; 10 μg/ml; Sigma-Aldrich) to blood. Deposited fibrin was visualized with Alexa Fluor 546-labeled (Invitrogen) mouse monoclonal IgG (50 μg/ml) specific for the B chain of mouse and human fibrin (HB-8545; ATCC). […] This was followed by buffer (DMEM) for 2 minutes to facilitate fibrin quantification by confocal z section analysis using a Zeiss Axiovert 135M/LSM 410 microscope (Carl Zeiss) and Plan-Apochromat×63/1.40 NA oil immersion objective. […] Deposited fibrin volume was measured from confocal sections collected at 4 preset positions in the flow chamber. Total volume of deposited platelets and fibrin was calculated from the sum of the respective area coverage per section multiplied by the z interval (2 μm). […]

FXa V17M mutant = target: T4, FXa V17M mutant (Homo sapiens, UniProt P00742, V236M); assay: FVIIIa generation by FXa V17M in stable complex with TF-iFVIIa-NAPc2; format: biochemical; conditions: up to 5 nM rivaroxaban
T4 construct: TF-associated FVIIa has converted FX into FXa active protease

[4] = full anticoagulant dosage; cited from earlier work
FXa WT = target: T5, FXa WT (Homo sapiens, UniProt P00742); assay: FVIIIa generation by FXa WT in stable complex with TF-iFVIIa-NAPc2; format: biochemical; conditions: 1 nM rivaroxaban
T5 construct: TF-associated FVIIa has converted FX into FXa active protease

[5] = target: FXa generated by Russel's viper venom (RVV) FX activator (Homo sapiens, UniProt P00742); assay: FVIII activation by FXa generated by Russel's viper venom FX activator; format: biochemical
Experimental: Thrombin was quantified with a fluorogenic substrate for calculation of % inhibition. […] Reactions were initiated by 100 pM FXa with 50 pM rTF as the phospholipid surface (top); or the preformed complex of 50 pM TF, 100 pM iFVIIa, 100 pM FXa, 5 nM NAPc2 (middle); or 50 pM TF/200 pM FVIIa/135 nM FX (bottom) in mixtures of 0.7 nM FVIII, 3 nM FV, 200 nM lepirudin, 10 nM TFPI, and 2.5 mM CaCl2 incubated for 120 s at 37° C. […] Endogenous thrombin potential (ETP, right) was calculated from the area under the TG curve (n=2).
In some experiments, prothrombin was omitted from reactions and 200 nM lepirudin was added to inactivate potentially contaminating thrombin. […] A stable complex with FXa as the only active protease was prepared with 50 pM rTF, 100 pM FVIIa-S195A (iFVIIa), 100 pM FXa and 5 nM NAPc2 incubated for 120 s at 37° C. FVIII activation by this complex was examined in reactions including FVIII, FV and lepirudin incubated for 120 s.

[6] = Plasma concentration in treated patients; format: in vivo; conditions: human, oral, n=10, 2 hours after drug intake

T1 sequence (P00742 41-179 limits assumed): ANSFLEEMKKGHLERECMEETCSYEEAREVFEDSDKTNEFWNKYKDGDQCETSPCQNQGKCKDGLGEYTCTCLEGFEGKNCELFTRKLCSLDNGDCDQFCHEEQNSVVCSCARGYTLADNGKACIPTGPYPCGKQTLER
T1 sequence (P00742 235-488 limits assumed): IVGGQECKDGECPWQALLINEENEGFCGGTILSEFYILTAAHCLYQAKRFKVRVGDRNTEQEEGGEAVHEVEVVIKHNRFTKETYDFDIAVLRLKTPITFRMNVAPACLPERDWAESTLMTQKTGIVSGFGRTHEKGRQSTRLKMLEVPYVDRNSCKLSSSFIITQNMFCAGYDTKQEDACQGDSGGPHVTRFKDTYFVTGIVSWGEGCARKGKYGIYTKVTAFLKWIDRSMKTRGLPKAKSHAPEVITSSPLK
Chain of FXa generated by Russel's viper venom (RVV) FX activator (P00742 41-179 limits assumed): as the sequence (P00742 41-179 limits assumed) above
Chain of FXa generated by Russel's viper venom (RVV) FX activator (P00742 235-488 limits assumed): as the sequence (P00742 235-488 limits assumed) above
T4 sequence (P00742 41-179): as the sequence (P00742 41-179 limits assumed) above
T4 sequence (P00742 235-488 V236M): as the sequence (P00742 235-488 limits assumed) above, with V2M counted along it
T5 sequence (P00742 41-179 limits assumed): as the sequence (P00742 41-179 limits assumed) above
T5 sequence (P00742 235-488 limits assumed): as the sequence (P00742 235-488 limits assumed) above
T2 sequence (P00742 41-179 limits assumed): as the sequence (P00742 41-179 limits assumed) above
T2 sequence (P00742 235-488 limits assumed): as the sequence (P00742 235-488 limits assumed) above
T3 sequence (P00742 41-179 limits assumed): as the sequence (P00742 41-179 limits assumed) above
T3 sequence (P00742 235-488 limits assumed): as the sequence (P00742 235-488 limits assumed) above

O=C(NC[C@H]1CN(c2ccc(N3CCOCC3=O)cc2)C(=O)O1)c1ccc(Cl)s1 [Rivaroxaban]
FVIIIa generation (nascent TF-FVIIa-FXa; 500 nM rivaroxaban): sustained
FVIIIa generation, coagulation initiated by FVIIa (nascent TF-FVIIa-FXa; TFPI and rivaroxaban combined, rivaroxaban as high as 450 nM, lepirudin present): substantial FVIIIa generation
effect on FVIII activation by nascent FXa generated by TF-FVIIa (nascent TF-FVIIa-FXa): only marginally affected
effect on FVIII activation by nascent FXa generated by TF-FVIIa (nascent TF-FVIIa-FXa; listed as rivaroxaban): minimally affected; also recorded: only marginally reduced
inhibition of FVIII activation by pre-activated FXa [1]: ~90%
effect on TG initiated by TF alone in reactions containing FIXa without FVIII (thrombin generation (TG)): inhibited
effect on FVa generation by the ternary TF-FVIIa-FXa complex [2]: blocked
mean volume of platelet aggregates vs controls [3]: not significantly different
volume of deposited fibrin vs controls [3]: not significantly decreased; also recorded: not significantly different from normal
effect on FVIIIa generation by FXa V17M (FXa V17M mutant): insensitive
peak plasma concentration [4]: 500 nM
effect on FVIII activation by FXa WT (FXa WT): almost completely inhibited
FVIIIa generation, initiator RVV-X ([5]; TFPI and rivaroxaban combined, rivaroxaban as high as 450 nM): substantial inhibition
effect on FVIII activation by RVV-generated FXa ([5]; equivalent FXa levels as with TF-FVIIa): inhibited
concentration at 2 h [6]: 312 nM
